Consider two compounds from patent publication US5858667A, “Method for the enumeration of micronucleated erythrocyte populations with a single laser flow cytometer” (Litron Laboratories, priority 1996, dated 1999).

Several values for one entry are separate records, joined by “and”; a condition that tells them apart may be missing. Equal entries are not always repeated. Entries after “also recorded” stand apart in the source; their conditions may differ.

Data set [1] has as its system normochromatic erythrocytes. The experiment in a line: Flow cytometric micronucleus assay (FITC-anti-CD71/propidium iodide), normochromatic erythrocytes, MMS-treated mice. The data set is classed as in vivo, male BALB/c mice. Particulars: for Average Freq. (%) MN-NCE: average of 5 mice; for Freq. (%) MN-NCE / No. MN-NCE / No. NCE: individual mouse. The method, then: (§1) Optimum flow cytometer settings are extremely important in this process. The fluorescent signals of the stained micronucleated normochromatic erythrocyte and micronucleated reticulocyte populations should be clearly resolved from those of the normochromatic erythrocyte and reticulocyte cell populations. In accordance with the method of the present invention, the analyses described herein were carried out with a single laser flow cytometer (Fac Star^PLUS ™, Becton Dickenson). The 5 W argon ion laser was tuned to provide 488 nm excitation. Cells were passed through the laser at an average rate of 2,500-8,000 erythrocytes/second. One embodiment of the invention is to use a 20μ elliptical beam that is focused at the sample stream. The results and analyses described herein were obtained with said beam. As known to those skilled in the art, different beam shapes are also acceptable.
(§2) The flow cytometer is equipped with four photomultiplier tubes (PMTs) which are used to sense forward light scatter, side light scatter, red fluorescence signals, and green fluorescence signals. Proper filters must be placed before the green and red photomultiplier tubes. In accordance with the methods of the present invention, adequate fluorescent signals can be obtained if a 520 nm long pass filter and a 555 nm short pass filter is placed before the green PMT. In accordance with the methods of the present invention, a 580 nm long pass filter in front of the red PMT is desirable. This is a preferred configuration that allows optimal fluorescence detection. However, as known to those skilled in the art, other filter sets may be acceptable. The signals received by the PMTs and the light scatter photodiode are processed by an in-line computer and cell populations of interest are quantitated (see, e.g., FIG. 1) using software conventional to the art. The data may be acquired and processed as either logarithmic or linear signals. In one configuration of the invention, log data was acquired for the forward light scatter, side scatter, as well as red and green fluorescence peak height signals.
(§3) Erythrocytes were isolated by gating on forward and side light scatter parameters. The stop mode of each analysis was reached when 500,000 total erythrocytes were interrogated. A window was set up corresponding to cells low in both fluorescence due to the labelled antibody with binding specificity for a surface marker for erythroblasts/reticulocytes (e.g., anti-CD71 antibody) and fluorescence due to the nucleic acid staining dye (e.g., propidium iodide), such as for detecting normochromatic erythrocytes in the erythrocyte population. A second gate was used to define cells low in anti-CD71 fluorescence and high in propidium iodide fluorescence, such as for detecting micronucleated normochromatic erythrocytes in the erythrocyte population. Another region corresponding to cells which were high in anti-CD71 fluorescence and low in propidium iodide fluorescence, such as for detecting reticulocytes in the erythrocyte population. A fourth region corresponding to cells which were high in both anti-CD71 fluorescence and in propidium iodide fluorescence was defined for detecting micronucleated reticulocytes in the erythrocyte population. Having defined these regions, the frequency of reticulocytes, micronucleated reticulocytes, micronucleated normochromatic erythrocytes, and normochromatic erythrocytes were automatically determined by the flow cytometry software.
(§4) Propidium iodide and FITC have been employed to simultaneously label nucleic acids and cell surface antigens in human B-cell lymphomas (Kruth et al., 1981, Cancer Res. 41:4895-4899; Montecucco et al., 1985, Basic Appl. Histochem. 29:275-2821). In the method according to the present invention the combined use of a nucleic acid staining dye, such as propidium iodide, and FITC-antibody labeling is utilized to differentially stain micronucleated reticulocytes. […]
(In flow cytometry, cells or beads pass a laser one at a time.)

Data set [2] has as its system reticulocytes. As to the kind of experiment: Flow cytometric micronucleus assay (FITC-anti-CD71/propidium iodide), reticulocytes, MMS-treated mice. The class given is in vivo, male BALB/c mice. Conditions: for Average Freq. (%) MN-RET: average of 5 mice; for Freq. (%) MN-RET / No. MN-RET / No. RET: individual mouse. The method, then:
as §1, §2, §3, §4

The subject of data set [3] is micronuclei. Particulars: previous observations, different methodologies; cited from earlier work.
Data set [4] relates to micronucleated polychromatic erythrocytes. Particulars: administered 2 hours before clastogen exposure; cited from earlier work.
The mark [5] stands for this setting: 0-72 h after 100 mg MMS/kg i.p., in words.

`COS(C)(=O)=O` [MMS, methyl methanesulfonate]: the “micronuclei frequency in the mature normochromatic erythrocyte population, time course” value in data set [1] (setting [5]) was “rise gradually over the course of the experiment; also recorded: rose slightly”. Moreover, in data set [1] (24 h after 100 mg MMS/kg i.p.), the “Average Freq. (%) MN-NCE” value is given as 0.26%; the “Freq. (%) MN-NCE” value is 0.25% and 0.26% and 0.23% and 0.28%; the “No. MN-NCE” value is 1244 and 1287 and 1145 and 1254 and 1391; the “No. NCE” value was 490949 and 490112 and 488089 and 487462 and 490011. Further, in data set [1] (40 h after 100 mg MMS/kg i.p.), the “Average Freq. (%) MN-NCE” value was found to be 0.28%; the “Freq. (%) MN-NCE” value is 0.29% and 0.26% and 0.24% and 0.30%; the “No. MN-NCE” value is 1405 and 1285 and 1178 and 1445 and 1458; the “No. NCE” value is 490511 and 485301 and 486302 and 484237 and 492350. Further, in data set [1] (48 h after 100 mg MMS/kg i.p.), the “Average Freq. (%) MN-NCE” value is listed as 0.30%; the “Freq. (%) MN-NCE” value is 0.31% and 0.32% and 0.27%; the “No. MN-NCE” value is 1515 and 1538 and 1298 and 1517 and 1339; the “No. NCE” value was 487164 and 481651 and 480648 and 476364 and 490250. For the same compound, in data set [1] (72 h after 100 mg MMS/kg i.p.), the “Average Freq. (%) MN-NCE” value is 0.34%; the “Freq. (%) MN-NCE” value was 0.34% and 0.36% and 0.35% and 0.33%; the “No. MN-NCE” value is 1593 and 1573 and 1607 and 1628 and 1575; the “No. NCE” value was 473052 and 462539 and 450096 and 461882 and 475141. Further, in data set [2] (setting [5]), the “frequency of micronucleated reticulocytes, time course” value was “rise sharply over the course of the first 40 hours; also recorded: rise and fall quickly”. Moreover, in data set [2] (24 h after 100 mg MMS/kg i.p.), the “Average Freq. (%) MN-RET” value was 0.81%; the “Freq. (%) MN-RET” value is 0.54% and 0.93% and 0.69% and 1.31% and 0.58%; the “No. MN-RET” value is 46 and 88 and 80 and 162 and 55; the “No. RET” value is 8531 and 9390 and 11532 and 12234 and 9391. For the same compound, in data set [2] (40 h after 100 mg MMS/kg i.p.), the “Average Freq. (%) MN-RET” value is 4.20%; the “Freq. (%) MN-RET” value is 4.41% and 4.18% and 4.89% and 3.81% and 3.72%; the “No. MN-RET” value is 386 and 592 and 652 and 581 and 262; the “No. RET” value was 8373 and 13570 and 12679 and 14533 and 6785. Further, in data set [2] (48 h after 100 mg MMS/kg i.p.), the “Average Freq. (%) MN-RET” value is 2.25%; the “Freq. (%) MN-RET” value was 2.92% and 2.09% and 2.10% and 1.86% and 2.29%; the “No. MN-RET” value was 355 and 366 and 396 and 431 and 211; the “No. RET” value is 11794 and 17187 and 18484 and 22687 and 8990. Moreover, in data set [2] (72 h after 100 mg MMS/kg i.p.), the “Average Freq. (%) MN-RET” value was 0.41%; the “Freq. (%) MN-RET” value was 0.43% and 0.40% and 0.46% and 0.34%; the “No. MN-RET” value is 112 and 147 and 224 and 150 and 82; the “No. RET” value was 25838 and 36327 and 48913 and 36940 and 23744. In addition, the “time of maximum response (micronuclei formation)” value in data set [3] was 36 h.
Consider chlorophyllin, for which the “effect on incidence of micronucleated polychromatic erythrocytes induced by gamma radiation” value in data set [4] is reported as “reduced the incidence of micronucleated polychromatic erythrocytes”.
